Numbered stars: 1 amine (or outer) side, 2 acyl side, 3 side chain; on linkers, the order of the positions; unused ones are H or OH. Square brackets hold non-standard residues; d marks the D form. Peptide text beside a SMILES is read from it. 2Furoyl(5-aminomethyl) = O=C(c1ccc(CN[*:1])o1)[*:2]; Aib = CC(C)(N)C(=O)O
Experiments:
GLP-1R = target: T1, GLP-1R (Homo sapiens, UniProt P43220); test: In vitro receptor functional assay (cAMP) in CHO/GLP-1R cells; assay type: cell-based; conditions: intracellular cAMP, 30 min with 1 mM IBMX
T1 construct: expressed in transfected cells; host or cells: CHO/GLP-1R cells
Excerpt: cAMP is a ubiquitous cellular second messenger that is critical component of a signal transduction pathway linking membrane receptors and their ligands to the activation of internal cellular enzymatic activity and gene expression. cAMP is synthesized from ATP by membrane bound adenylate cyclase in a very regulated manner. In its simpler form, binding of a ligand, such as hormone or drug, to its specific G protein coupled receptor can either stimulate or inhibit adenylate cyclase depending on the GPCR being activated. […] Therefore the relative concentration of cAMP serves as a means to monitor the activity of GPCRs at the cell surface.
CHO/GLP-1R Cell Culture—CHO/GLP-1R Cells were maintained in Ham's F-12 medium containing 10% Fetal bovine serum and 1% penicillin-streptomycin antibiotic solution at 37° C. in a 5% CO2 incubator.
Cells were washed twice with PBS (pH-7.2) and incubated with 100 μl Ham's F-12 serum free medium supplemented with 0.1% BSA for 2 hr at 37° C. in 5% CO2 incubator. Cells were then incubated in 100 μl Ham's F-12 serum free medium supplemented with 0.1% BSA with 1 mM IBMX in the presence as well as absence of the peptides as per present invention in different concentration (10 nM, 1 nM, 100 pM & 10 pM). The reaction was stopped 30 min later by washing the intact cells three times with ice cold PBS (pH-7.2). The intracellular cAMP was extracted by incubating the cells in 100 μl 0.1N HCl at room temperature for 20 minutes. Mixture was dissociated by pipetting up and down until the suspension became homogenous, transferred to centrifuge tube and centrifuged at 800 rpm for 10 minutes.
Dissolved 5 pNPP tablets in 25 ml DEA buffer. Wells were emptied and washed five times with wash buffer and added 200 μl pNPP solution to each well, plate was covered and allowed to develop in dark for 90 minutes.

DPP-IV = target: T2, DPP-IV (Homo sapiens, UniProt P27487); test: DPP-IV resistant assay; assay type: in vitro ADME
T2 construct: purchased Sigma-Aldrich
Method: 20 μM of peptides of the present invention (Sequence IDs—01, 02, 03, 04, 05, 06, 11, 12 and 13) were incubated with 60 mU/2 ml of DPP-IV (Sigma-Aldrich) enzyme at room temperature (22-24° C.) in 20 mM Tris HCl buffer, pH 8.0. The aliquots were analyzed for the amount of undegraded peptide concentration at different time intervals by RP-HPLC. The peak area integration was used to determine the amount of undegraded peptide (U.S. Pat. No. 7,067,488). T1/2 of each peptide was determined from the graph plotted between peak area of undegraded peptide vs. time. The peak area of DPP-IV untreated peptide in above mentioned buffer condition of same concentration was considered as time zero. […]

NEP 24.11 = target: T3, NEP 24.11 (Homo sapiens, UniProt P08473); test: NEP 24.11 resistant (degradation) assay; assay type: in vitro ADME; conditions: pH 7.4
T3 construct: purchased Calbiochem
Method: The aliquots were analyzed for the amount of undegraded peptide concentration at different time intervals using RP-HPLC by peak area integration. T1/2 of each peptide was determined from the graph plotted between peak area of undegraded peptide vs time.

T1 sequence (P43220 24-463, species assumed): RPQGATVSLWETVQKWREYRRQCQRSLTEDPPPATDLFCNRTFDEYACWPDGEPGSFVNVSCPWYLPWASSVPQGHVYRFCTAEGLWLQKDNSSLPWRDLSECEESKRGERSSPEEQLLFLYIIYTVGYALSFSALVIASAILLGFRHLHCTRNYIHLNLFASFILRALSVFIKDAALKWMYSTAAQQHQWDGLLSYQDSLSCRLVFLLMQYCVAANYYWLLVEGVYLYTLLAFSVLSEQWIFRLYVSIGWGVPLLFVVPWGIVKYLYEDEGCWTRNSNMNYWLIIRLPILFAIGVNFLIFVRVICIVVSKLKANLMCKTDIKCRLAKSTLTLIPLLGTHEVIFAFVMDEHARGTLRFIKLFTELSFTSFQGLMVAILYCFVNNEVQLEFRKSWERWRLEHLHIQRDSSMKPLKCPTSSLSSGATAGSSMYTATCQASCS
T2 sequence (P27487 whole entry, species assumed): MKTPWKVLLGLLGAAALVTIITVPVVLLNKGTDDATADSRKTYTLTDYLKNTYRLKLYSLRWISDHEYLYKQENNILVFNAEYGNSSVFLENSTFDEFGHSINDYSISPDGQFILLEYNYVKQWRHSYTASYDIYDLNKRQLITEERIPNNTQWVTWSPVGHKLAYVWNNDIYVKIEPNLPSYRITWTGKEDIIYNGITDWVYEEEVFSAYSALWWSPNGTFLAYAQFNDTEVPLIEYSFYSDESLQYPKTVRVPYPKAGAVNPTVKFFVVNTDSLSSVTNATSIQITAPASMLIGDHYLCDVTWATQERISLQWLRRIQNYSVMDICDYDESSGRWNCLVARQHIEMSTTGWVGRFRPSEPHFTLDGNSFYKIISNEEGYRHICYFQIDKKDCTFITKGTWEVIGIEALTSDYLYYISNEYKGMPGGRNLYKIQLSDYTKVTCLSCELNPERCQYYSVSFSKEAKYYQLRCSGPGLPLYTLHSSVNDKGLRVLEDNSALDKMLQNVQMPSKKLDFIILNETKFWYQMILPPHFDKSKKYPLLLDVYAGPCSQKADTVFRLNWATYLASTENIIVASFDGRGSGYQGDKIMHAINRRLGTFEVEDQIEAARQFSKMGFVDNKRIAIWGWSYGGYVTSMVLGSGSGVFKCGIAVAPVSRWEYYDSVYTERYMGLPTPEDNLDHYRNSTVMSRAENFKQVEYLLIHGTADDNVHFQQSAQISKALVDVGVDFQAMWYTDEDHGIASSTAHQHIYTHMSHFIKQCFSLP
T3 sequence (P08473 whole entry): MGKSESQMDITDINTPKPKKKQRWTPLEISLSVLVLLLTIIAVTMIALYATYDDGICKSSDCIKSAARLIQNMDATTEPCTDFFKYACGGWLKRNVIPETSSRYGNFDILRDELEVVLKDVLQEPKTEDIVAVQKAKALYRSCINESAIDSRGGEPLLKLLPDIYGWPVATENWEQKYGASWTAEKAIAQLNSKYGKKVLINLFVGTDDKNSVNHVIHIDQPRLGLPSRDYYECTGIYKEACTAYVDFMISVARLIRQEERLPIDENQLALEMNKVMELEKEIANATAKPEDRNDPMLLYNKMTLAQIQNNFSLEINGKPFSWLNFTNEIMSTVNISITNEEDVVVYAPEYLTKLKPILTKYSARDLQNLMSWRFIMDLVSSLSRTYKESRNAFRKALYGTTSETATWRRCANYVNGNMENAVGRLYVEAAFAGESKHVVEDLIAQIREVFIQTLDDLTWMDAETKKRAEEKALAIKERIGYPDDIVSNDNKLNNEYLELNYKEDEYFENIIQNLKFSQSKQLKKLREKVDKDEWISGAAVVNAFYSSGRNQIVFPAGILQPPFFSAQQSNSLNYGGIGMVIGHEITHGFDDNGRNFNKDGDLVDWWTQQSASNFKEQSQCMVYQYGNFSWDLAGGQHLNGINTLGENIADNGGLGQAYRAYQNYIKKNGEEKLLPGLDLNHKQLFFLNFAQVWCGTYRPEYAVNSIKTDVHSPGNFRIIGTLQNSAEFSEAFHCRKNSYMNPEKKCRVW

| EC50 (GLP-1R) [nM] | Percentage degradation in hrs (DPP-IV) [%] | half-life at 20 μM (DPP-IV; pH 8) [min] | half-life at 20 μM (NEP 24.11; buffer) [days] | metabolised at 54 h, 20 μM (NEP 24.11; isolated enzyme neprilysin) [%] | SMILES |
| --- | --- | --- | --- | --- | --- |
| 3.38 |  |  |  |  | CC[C@H](C)[C@H](NC(=O)[C@H](Cc1ccccc1)NC(=O)[C@H](CCC(=O)O)NC(=O)[C@H](CCCCN)NC(=O)[C@H](C)NC(=O)[C@H](C)NC(=O)[C@H](CCC(N)=O)NC(=O)CNC(=O)[C@H](CCC(=O)O)NC(=O)[C@H](CC(C)C)NC(=O)[C@H](Cc1ccc(O)cc1)NC(=O)[C@H](CO)NC(=O)[C@H](CO)NC(=O)C(C)(C)NC(=O)[C@H](CC(=O)O)NC(=O)[C@H](CO)NC(=O)[C@@H](NC(=O)[C@H](Cc1ccccc1)NC(=O)[C@@H](NC(=O)CNC(=O)c1ccc(CNC(=O)[C@@H](N)Cc2c[nH]cn2)o1)[C@@H](C)O)[C@@H](C)O)C(=O)NC(C)(C)C(=O)N[C@@H](Cc1c[nH]c2ccccc12)C(=O)N[C@@H](CC(C)C)C(=O)N[C@H](C(=O)N[C@@H](CCCCN)C(=O)NCC(=O)N[C@@H](CCCNC(=N)N)C(=O)NCC(N)=O)C(C)C [Seq ID No. 10] (H-H[2Furoyl(5-aminomethyl)]GTFTSD[Aib]SSYLEGQAAKEFI[Aib]WLVKGRG-NH2) |
| 0.601 |  |  |  |  | CC[C@H](C)[C@H](NC(=O)[C@H](Cc1ccccc1)NC(=O)[C@H](CCC(=O)O)NC(=O)[C@H](CCCCN)NC(=O)[C@H](C)NC(=O)[C@H](C)NC(=O)[C@H](CCC(N)=O)NC(=O)CNC(=O)[C@H](CCC(=O)O)NC(=O)[C@H](CC(C)C)NC(=O)[C@H](Cc1ccc(O)cc1)NC(=O)[C@H](CO)NC(=O)[C@H](CO)NC(=O)[C@@H](NC(=O)[C@H](CC(=O)O)NC(=O)[C@H](CO)NC(=O)[C@@H](NC(=O)[C@H](Cc1ccccc1)NC(=O)[C@@H](NC(=O)CNC(=O)c1ccc(CNC(=O)[C@@H](N)Cc2c[nH]cn2)o1)[C@@H](C)O)[C@@H](C)O)C(C)C)C(=O)N[C@@H](C)C(=O)N[C@@H](Cc1c[nH]c2ccccc12)C(=O)N[C@@H](CC(C)C)C(=O)N[C@H](C(=O)N[C@@H](CCCCN)C(=O)NCC(=O)N[C@@H](CCCNC(=N)N)C(N)=O)C(C)C [Seq ID No. 08] |
| 0.056 |  |  |  |  | CC[C@H](C)[C@H](NC(=O)[C@H](Cc1ccccc1)NC(=O)[C@H](CCC(=O)O)NC(=O)[C@H](CCCCN)NC(=O)[C@H](C)NC(=O)[C@H](C)NC(=O)[C@H](CCC(N)=O)NC(=O)CNC(=O)[C@H](CCC(=O)O)NC(=O)[C@H](CC(C)C)NC(=O)[C@H](Cc1ccc(O)cc1)NC(=O)[C@H](CO)NC(=O)[C@H](CO)NC(=O)[C@@H](NC(=O)[C@H](CC(=O)O)NC(=O)[C@H](CO)NC(=O)[C@@H](NC(=O)[C@H](Cc1ccccc1)NC(=O)[C@@H](NC(=O)CNC(=O)[C@H]1O[C@H](OC)[C@H](NC(=O)[C@@H](N)Cc2c[nH]cn2)[C@@H](O)[C@@H]1O)[C@@H](C)O)[C@@H](C)O)C(C)C)C(=O)N[C@@H](C)C(=O)N[C@@H](Cc1c[nH]c2ccccc12)C(=O)N[C@@H](CC(C)C)C(=O)N[C@H](C(=O)N[C@@H](CCCCN)C(=O)NCC(=O)N[C@@H](CCCNC(=N)N)C(N)=O)C(C)C [Seq ID No. 07] |
|  | 12.87 | > 1440 | > 2.33 | 26 | CC[C@H](C)[C@H](NC(=O)[C@H](Cc1ccccc1)NC(=O)[C@H](CCC(=O)O)NC(=O)[C@H](CCCCN)NC(=O)[C@H](C)NC(=O)[C@H](C)NC(=O)[C@H](CCC(N)=O)NC(=O)CNC(=O)[C@H](CCC(=O)O)NC(=O)[C@H](CC(C)C)NC(=O)[C@H](Cc1ccc(O)cc1)NC(=O)[C@H](CO)NC(=O)[C@H](CO)NC(=O)C(C)(C)NC(=O)[C@H](CC(=O)O)NC(=O)[C@H](CO)NC(=O)[C@@H](NC(=O)[C@H](Cc1ccccc1)NC(=O)[C@@H](NC(=O)CNC(=O)[C@H](CCC(=O)O)NC(=O)c1ccc(CNC(=O)[C@@H](N)Cc2c[nH]cn2)o1)[C@@H](C)O)[C@@H](C)O)C(=O)NC(C)(C)C(=O)N[C@@H](Cc1c[nH]c2ccccc12)C(=O)N[C@@H](CC(C)C)C(=O)N[C@H](C(=O)N[C@@H](CCCCN)C(=O)NCC(=O)N[C@@H](CCCNC(=N)N)C(N)=O)C(C)C [Seq ID No. 04] (H-H[2Furoyl(5-aminomethyl)]EGTFTSD[Aib]SSYLEGQAAKEFI[Aib]WLVKGR-NH2; N-terminus assumed) |
